{"source": "patent US20260000632A1", "about": "“STRUCTURALLY MODIFIED FATTY ACIDS FOR IMPROVING GLYCEMIC CONTROL AND TREATING INFLAMMATORY BOWEL DISEASE” (Northsea Therapeutics B.V., priority 2018, published 2026)", "key": {"[1]": {"test": "Excretion balance of radioactivity after single oral [14C]-Compound B", "assay_type": "in vivo, rat", "details": "male albino rats, single oral [14C]-Compound B 50 mg/kg", "protocol": "To assess Compound B clearance via urine versus feces, the excretion pattern of a single oral dose of [14C]-Compound B was determined in male albino rats. […] The total excretion of radioactivity following oral administration was >95% within the first 48 hours. Excretion via the urine accounted for 12% of the administered dose. […]"}, "[2]": {"tested_on": "DSS-induced colitis C56BL/6J mice", "test": "DSS-induced colitis mouse model (body weight, colon length, survival, histology)", "assay_type": "in vivo", "details": "for Difference in weight loss between control and treated group / Survival rate 7 days after colitis was induced: 1.5% DSS; for Survival rate 7 days after colitis was induced: C56BL/6J mice (control 50%)", "description": "The dextran sodium sulphate-induced (DSS)-induced colitis model is well known in the art as a reproducible chemical induction of intestinal inflammation animal model. See, e.g., Eichele et al., World J Gastroenterol, 2017, 23(33):6016-6029; Randhawa et al., Korean J. Physiol. Pharmacol. (2014) 18:279-288; Jurjus et al., J. Pharmacol. Toxicol., Methods, 2004, 50:81-92; Gaudio et al., Dig. Dis. Sci., 1999, 44:1458-1475. The DSS-induced colitis model morphologically and symptomatically resembles epithelial damage seen in human IBD, and thus has become the most extensively employed experimental model of intestinal inflammation. Okayasu et al., Gastroenterology, 1990, 98:694-702; Kawada et al., World J. Gastroenterol. 2007, 13:5581-5593. The DSS-induced colitis model is most similar to ulcerative colitis in humans, but also has many similarities to Crohn's disease.\nDSS is a water soluble, negatively charged sulfated polysaccharide with a highly variable molecular weight ranging from 5 to 1400 kDa. Murine colitis results from administration of about 1% to 3% DSS to the drinking water of a mouse strain susceptible to DSS-induced colitis. Without being bound by theory, the sulfated polysaccharide may not directly induce intestinal inflammation, but may instead act as a direct chemical toxin to colonic epithelium resulting in epithelial cell injury. It is thought that DSS disrupts the intestinal epithelial monolayer lining, leading to the entry of luminal bacteria and associated antigens into the mucosa and allowing the dissemination of proinflammatory intestinal contents into underlying tissue. […] Perse et al., J. Biomed. Biotechnol., 2012:718617.\nThe C56BL/6J mouse is a strain susceptible to DSS-induced colitis. To evaluate the efficacy and dosage of Compound B in treatment of DSS-induced colitis, inflammation was induced in 30 9-week old C56BL/6J mice by adding 1.5% DSS to the drinking water for 7 days. The mice were fed a standard chow diet that consisted of 30 weight percent wheat. The mice were divided into three groups of 10, and for each day of DSS administration each group was administered via oral gavage either (1) 100 μL corn oil per day (Control), (2) 126 mg/kg Compound B (dissolved in 100 μL corn oil) per day (“Compound B-Low” or “Compound B-L”), or (3) 252 mg/kg Compound B (dissolved in 100 μL corn oil) per day (“Compound B-High” or “Compound B-H”). Following the 7-day period of DSS induction, mice were sacrificed and their intestinal tissue was used for histopathological and gene expression analysis.\nTo assess the efficacy of Compound B in the treatment of DSS-induced colitis in mice, the body weight of mice was monitored. Weight loss is an indicator of colitis severity.\nTo assess the efficacy of Compound B in the treatment of DSS-induced colitis in mice, colon length of test mice was measured. Colon length correlates inversely with inflammation.\nHistopathological analysis was performed on sections of formalin-fixed paraffin embedded tissue after hematoxylin and eosin (H&E) staining. Colonic samples were analyzed by histopathology for assignment of scores for colitis activity as described in Neurath et al., J. Exp. Med., 2002, 195:1129-1143. Briefly, the degrees of inflammation and epithelial and mucosal injury on microscopic cross-sections of the colon were graded semi-quantitatively from 0 to 4. For inflammation, a score of 0=no evidence for inflammation; 1=low level of inflammation with scattered infiltrating mononuclear cells (1-2 foci only); 2=moderate inflammation with multiple foci; 3=high level of inflammation with increased vascular density and marked wall thickening; and 4=maximal severity of inflammation with transmural leukocyte infiltration and loss of goblet cells. For injury, a score of 0=no epithelial injury; 1=occasional epithelial lesion; 2=1-2 foci of ulcerations; and 3=extensive ulcerations. […]"}, "[3]": {"details": "high dose, 252 mg/kg per day, 7 days 1.5% DSS"}}, "note": "“And” between values parts separate entries of the source, which are not always exact repeats. Identical values can stand only once.", "data": [{"smiles": "CC/C=C\\C/C=C\\C/C=C\\C/C=C\\C/C=C\\CCCCSC(CC)(CC)C(=O)O", "note": "[Compound B, 2-ethyl-2-((5Z,8Z,11 Z,14Z,17Z)-icosa-5,8,11,14,17-pentaenylthio)butanoic acid]", "values": [{"measurement": "Total excretion of radioactivity within the first 48 hours", "setting": "[1]", "value": "> 95", "unit": "%"}, {"measurement": "% Recovery of Administered Dose (Mean), Cage debris (0-168 h)", "setting": "[1]; n = 3", "value": 0.038, "unit": "%"}, {"measurement": "% Recovery of Administered Dose (Mean), Carcass (168 h)", "setting": "[1]; n = 3", "value": 1.14, "unit": "%"}, {"measurement": "% Recovery of Administered Dose (Mean), Faeces (0-168 h)", "setting": "[1]; n = 3", "value": "86% and 85.8%"}, {"measurement": "% Recovery of Administered Dose (Mean), Mean total radioactivity (0-168 h)", "setting": "[1]; n = 3", "value": 101, "unit": "%"}, {"measurement": "% Recovery of Administered Dose (Mean), Urine (0-168 h)", "setting": "[1]; n = 3", "value": "12% and 12.4%"}, {"measurement": "% Recovery of Administered Dose (Mean), Cage wash (0-168 h)", "setting": "[1]; n = 3, includes final cage wash", "value": 1.27, "unit": "%"}, {"measurement": "Difference in weight loss between control and treated group", "setting": "[2]; 126 mg/kg per day (Compound B-Low) oral gavage, C56BL/6J mice", "value": "statistically significant after 7 days"}, {"measurement": "Difference in weight loss between control and treated group", "setting": "[2]; 252 mg/kg per day (Compound B-High) oral gavage, C56BL/6J mice", "value": "statistically significant after 6 days"}, {"measurement": "Body weight loss compared to control", "setting": "[2]; 126 and 252 mg/kg per day oral gavage, 7 days 1.5% DSS, C56BL/6J mice", "value": "dose-dependent reduction in weight loss"}, {"measurement": "Histology of colon cross-sections in treated mice", "setting": "[2]; 126 and 252 mg/kg per day, 7 days 1.5% DSS", "value": "dose-dependent attenuation of inflammatory infiltrates and edema"}, {"measurement": "Colon length compared to control", "setting": "[2]; both low (126 mg/kg) and high (252 mg/kg) doses per day, 7 days 1.5% DSS, C56BL/6J mice", "value": "significant increase in colon length"}, {"measurement": "Survival rate 7 days after colitis was induced", "setting": "[2]; high dose, 252 mg/kg per day oral gavage", "value": 100, "unit": "%"}, {"measurement": "Histological cross-sections of colon, morphology", "setting": "[2]; [3]", "value": "almost complete rescue"}, {"measurement": "Inflammation and epithelial and mucosal injury versus untreated mice", "setting": "[2]; [3]", "value": "lower"}, {"measurement": "Histological scores of colon versus untreated mice", "setting": "[2]; high dose, 252 mg/kg per day, 7 days 1.5% DSS, H&E", "value": "significantly lower"}, {"measurement": "Survival rate 7 days after colitis was induced", "setting": "[2]; low dose, 126 mg/kg per day oral gavage", "value": 90, "unit": "%"}]}]}
